Assay [1] relates to TLR4 with MD2 or CD14 co-receptor. Description: Reporter gene (SEAP) PAMP assay in NIH3T3 cells expressing TLR4 with MD2 or CD14 co-receptor. The format is cell-based. Particulars: summary of FIGS. 6A-6V. From the text:
FIGS. 6A-6V show the dose response inhibitor/activator effects of the designed peptides using a reporter gene assay. The reporter gene assay is composed of NIH3T3 cells transfected with either MD2 or CD14 along with TLR4 and the NF-κB-inducible reporter gene Secreted Alkaline Phosphatase (SEAP) to monitor TLR4 activation (Burger-[…] al. 2010, A new cell-based innate immune receptor assay for the examination of receptor activity, ligand specificity, signaling pathways and the detection of pyrogens. […] The receptors are coupled to for the detection of inhibitory activity, cells were treated with the peptide prior to exposure to LPS and the response to LPS is measured at variable peptide doses (as labeled). The detection of cell activation was performed using the peptide alone, at variable doses, as indicated in the respective graphs. The following presents in more details the experimental procedures. Experimental setup: The cell-based Assay is performed with different NIH3T3 reporter cell lines (NIH 3T3 PRR SEAP-TLR4/CD14 or -TLR4/MD2) and the control cell line NIH 3T3 SEAP. The NIH3T3 SEAP cell line is used in order to determine the background of the alkaline phosphatase expression. It is a cell line stably transfected with only the reporter gene plasmid. For each assay a vial of the master cell bank is revitalized and seeded in a standard cell culture flask (75 cm^2 T-Flask) at day one. Cells are cultured in 20 ml culture media (DMEM supplemented with 10% FCS (heat inactivated), 50 units/ ml penicillin, 0.05 mg/ ml streptomycin and 2 mmol/ L L-glutamine). The cells are cultured at 37° C. in a 5% CO2 humidified atmosphere. At Day 1: For the PAMP Assay cells are seeded in a 96-well plate at a density of 0.3.10^5 cells/well in a final volume of 100 μl culture media (DMEM, 10% FCS (heat inactivated)). To ensure equal culture conditions the 96-well cell culture plates are placed side by side and cultivated in a humidified CO2 incubator (37° C. and 5% CO2). […] After a cultivation period of 24 h the media is removed and replaced with the respective volume of fresh media (DMEM, 0.5% FCS (heat inactivated)).The lyophilized peptides are stored in a freezer at -20° C. upon arrival. For the experiments they are dissolved in DMSO (to the highest possible concentration). Before opening the peptides are allowed to equilibrate to room temperature (in order to reduce the uptake of moisture). For each experiment the stock solution is diluted in DMEM to the appropriate working concentration. […] Sonication was also used to help dissolve the peptides. Immediately after replacing the media, the diluted peptides are applied in a serial dilution to the cells and directly after that the agonist is added to the cells. After adding peptide and […] the final volume in each well of a 96 well plate amounts 100 μl/well. The culture medium containing 0.5% FCS is used as a negative reference item. The induction is performed for 18 h at 37° C. and 5% CO2. At Day 3: To determine the final SEAP value, 50 μl of the supernatant is carefully transferred in a new 96-well plate (Greiner-F-plate) and 50 μl of the substrate (pNPP; p-nitrophenyl phosphate) is added. SEAP catalyzes the hydrolysis of pNPP to the final product para-nitrophenol (yellow) which can be detected by a photometric analysis using an UV-VIS reader at 405 nm. […] The results of FIGS. 6A-6V with respect to peptide activity are summarized in Table 1 above with respect to the type of effect of the respective peptide (activation/inhibition) and with respect to the corresponding co-receptor (MD2/CD14). Data concerning SEQ ID No. 22 with respect to co-receptor CD14 is in preparation.

In assay [2] the test system is Raw 264.7 cells. Put plainly: Raw cells activation, FACS of activation markers CD80, CD40, CD86, MHC-II. The conditions noted are these: 24 h and 48 h, compared to negative control and other peptides. The format is cell-based. The protocol: Additional testing was carried out to verify the activation levels if the peptides using expression level of activation markers. Raw cells were activated using the peptides of SEQ ID Nos. 1, 4 and 5 and a control peptide. The analysis of the activation level was done by examining the expression level of few activation markers. In order to verify the obtained results, two repeats were done. Standard Raw cells activation and FACS staining protocol were carried out.
The following describes the experimental design in detail. 5-7.5X10^6 Raw 264.7 cells were seeded in 6-well plates 24 h prior to the stimulation in 3ml/well of DMEM containing 4 mmol/L glutamine and 10% heat-inactivated FCS. At the next day, cells were treated with bacterial LPS (10 or 100 ng/ml, E coli, sigma) as positive control, and with peptides SEQ ID Nos. 1, 4, 5 and the control peptide (50, 100 and 200 μM for each peptide). The volume of the incubation was 1.5 ml for each well. After 24 or 48 h (two experiments), the concentrations of nitrite were measured in the culture supernatant by the Griess assay while absorbance was read at 550 nm. Simultaneously, the cells were stained for surface receptors: CD40, CD80, CD86 and MHC-II with the appropriate antibodies (biolegend) and analysed by flow cytometry using FSC express 3 software. […]

As to LAWYFGRKIKE (Inhibitor) [SEQ ID No. 11], the Co-Receptor/s result in assay [1] (co-receptor (MD2/CD14) via which the effect occurs) is on record as “MD2”. Besides, the Activity entry in assay [1] (type of effect (activation/inhibition) on TLR4) is listed as “Inhibitor”. Besides, in assay [2], the “stimulation of raw cells (expression of activation markers)” value was “most promising stimulator”.

(Values after patent US20200247849A1, “PEPTIDE AGONISTS AND ANTAGONISTS OF TLR4 ACTIVATION” (PEPTICOM LTD, priority 2016, published 2020).)
